In patent publication US7786079B2, “Substituted nonadepsipeptides” (priority 2004, dated 2010):
*1 amine or outer side, *2 acyl side, *3 side chain or, on linkers, in order; H or OH if unused. Where a SMILES comes first, the peptide text is derived from it. Bridges are numbered along the chain shown (N, C = ends). Side-chain parts run from the residue outwards. [ ]: non-standard residue; d: D form. The star is where a group is joined. X1 = NC(=O)[C@@H](OC(=O)c1ccc(N2CCOCC2)nc1)[C@H](N[*:1])C(=O)[*:2]; Phe(3R-OH) = O=C([C@@H](N[*:1])[C@H](O[*:3])c1ccccc1)[*:2]; X2 = NC(=O)[C@@H](OC(=O)Nc1ccccc1)[C@H](N[*:1])C(=O)[*:2]; NH(4-morpholinophenyl) = c1cc(N2CCOCC2)ccc1N*; Asn(3S-OH) = NC(=O)[C@@H](O)[C@H](N)C(=O)O; Leu(3R-OH) = CC(C)[C@@H](O)[C@H](N)C(=O)O; aThr = C[C@H](O)[C@H](N)C(=O)O; CO = O=C([*:1])[*:2]

Assays:
[1] = system: E. faecalis ICB 27159; assay type: cell-based, Entercococcus faecalis
Experimental: (§1) Determination of the Minimum Inhibitory Concentration (MIC): The MIC is determined in the liquid dilution test in accordance with the NCCLS guidelines. […] The cultures are incubated at 37° C. for 18-24 hours, S. pneumoniae in the presence of 10% CO2. The lowest substance concentration in each case at which no visible bacterial growth occurs any more is defined as the MIC. The MIC values are reported in μg/ml.

[2] = system: E. faecium L4001; assay type: cell-based
Experimental: as §1

[3] = system: Staphylococcus aureus 133; assay type: cell-based
Experimental: as §1

[4] = system: Streptococcus pneumoniae G9a; assay type: cell-based
Experimental: as §1

| SMILES | MIC E. faecalis ICB 27159 [1] | MIC E. faecium L4001 [2] | MIC S. aureus 133 [3] | MIC S. pneumoniae G9a [4] |
| --- | --- | --- | --- | --- |
| CC[C@H](C)[C@@H]1NC(=O)[C@@H](CCCNC(=N)NC(=O)Nc2ccc(N3CCOCC3)cc2)NC(=O)[C@H](CC(C)C)NC(=O)[C@H]([C@H](O)C(C)C)NC(=O)[C@@H](NC(=O)[C@H](CC(C)C)NC(=O)[C@H](N)CC(C)C)[C@@H](c2ccccc2)OC(=O)[C@H](CO)NC(=O)[C@H]([C@H](O)C(N)=O)NC(=O)CNC(=O)[C@H]([C@H](C)O)NC1=O.O=C(O)C(F)(F)F [Example 11] (H-[dL]L[Phe(3R-OH)][Leu(3R-OH)]L[dR]([CO-NH(4-morpholinophenyl)])I[aThr]G[Asn(3S-OH)]S; ester 3-C) | 0.5 µg/mL | 1 µg/mL | 0.5 µg/mL | 0.5 µg/mL |
| CC[C@H](C)[C@@H]1NC(=O)[C@@H](CCCNC(=N)N)NC(=O)[C@H](CC(C)C)NC(=O)[C@H]([C@H](O)C(C)C)NC(=O)[C@@H](NC(=O)[C@H](CC(C)C)NC(=O)[C@H](N)CC(C)C)[C@@H](c2ccccc2)OC(=O)[C@H](CO)NC(=O)[C@H]([C@H](OC(=O)Nc2ccccc2)C(N)=O)NC(=O)CNC(=O)[C@H]([C@H](C)O)NC1=O.O=C(O)C(F)(F)F.O=C(O)C(F)(F)F [Example 2] (H-[dL]L[Phe(3R-OH)][Leu(3R-OH)]L[dR]I[aThr]G[X2]S; ester 3-C) | 1 µg/mL | 4 µg/mL | 0.5 µg/mL | 1 µg/mL |
| CC[C@H](C)[C@@H]1NC(=O)[C@@H](CCCNC(=N)N)NC(=O)[C@H](CC(C)C)NC(=O)[C@H]([C@H](O)C(C)C)NC(=O)[C@@H](NC(=O)[C@H](CC(C)C)NC(=O)[C@H](N)CC(C)C)[C@@H](c2ccccc2)OC(=O)[C@H](CO)NC(=O)[C@H]([C@H](OC(=O)c2ccc(N3CCOCC3)nc2)C(N)=O)NC(=O)CNC(=O)[C@H]([C@H](C)O)NC1=O.O=C(O)C(F)(F)F.O=C(O)C(F)(F)F [Example 17] (H-[dL]L[Phe(3R-OH)][Leu(3R-OH)]L[dR]I[aThr]G[X1]S; ester 3-C) | 2 µg/mL | 4 µg/mL | 0.5 µg/mL | 0.5 µg/mL |
